{"source": "patent US20260167623A1", "about": "(NIKANG THERAPEUTICS, INC., priority 2022, published 2026)", "data": [{"molecular_target": "T1, CDK2 (Homo sapiens, UniProt P24941)", "T1 construct": "High-Throughput Measurement of Cellular Endogenous CDK2; endogenous in cells; host or cells: OVCAR3", "test": "Inhibition of CDK2: phospho-Rb (S807/811) HTRF measurement in OVCAR3 cells, 24 h", "type": "cell-based", "settings": "24 h compound treatment, read-out: pRB_OVCAR3_24h", "in_short": "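IC50 came from a four-parameter fit of DMSO-normalized TR-FRET ratios (665/620 nm) reporting phospho-Rb S807/811. Lysates were taken from OVCAR3 cultures treated 24 h with compound (0.3 to 10,000 nM) and incubated 4 h at room temperature with the antibody pair.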", "units": {"IC50": "nM"}, "values": [{"smiles": "Cn1nc(N2CCC(=O)NC2=O)c2ccc(C3CCN(CC4CCN(c5cccc(S(=O)(=O)N6CCC(Nc7ncc(F)cn7)CC6)c5)CC4)CC3)cc21", "note": "[Example 193, 1-(6-(1-((1-(3-((4-((5-fluoropyrimidin-2-yl)amino)piperidin-1-yl)sulfonyl)phenyl)piperidin-4-yl)methyl)piperidin-4-yl)-1-methyl-1H-indazol-3-yl)dihydropyrimidine-2,4(1H,3H)-dione]", "IC50": "500 to 2500"}, {"smiles": "Cn1nc(N2CCC(=O)NC2=O)c2ccc(C3CCN(C[C@@H]4CCCN(c5cccc(S(=O)(=O)N6CCC(Nc7ncc(OC(F)F)cn7)CC6)c5)C4)CC3)cc21", "note": "[Example 257, (S)-1-(6-(1-((1-(3-((4-((5-(difluoromethoxy)pyrimidin-2-yl)amino)piperidin-1-yl)sulfonyl)phenyl)piperidin-3-yl)methyl)piperidin-4-yl)-1-methyl-1H-indazol-3-yl)dihydropyrimidine-2,4(1H,3H)-dione]", "IC50": "100 to 500"}, {"smiles": "Cn1nc(N2CCC(=O)NC2=O)c2ccc(C3CCN(CC4CCN(c5cccc(S(=O)(=O)N6CCC(Nc7ncc(OC8CC8)cn7)CC6)c5)CC4)CC3)cc21", "note": "[Example 252, 1-(6-(1-((1-(3-((4-((5-cyclopropoxypyrimidin-2-yl)amino)piperidin-1-yl)sulfonyl)phenyl)piperidin-4-yl)methyl)piperidin-4-yl)-1-methyl-1H-indazol-3-yl)dihydropyrimidine-2,4(1H,3H)-dione]", "IC50": "100 to 500"}, {"smiles": "Cn1nc(N2CCC(=O)NC2=O)c2ccc(C#CCN3CCN(c4cccc(S(=O)(=O)N5CCC(Nc6ncc(Cl)cn6)CC5)c4)CC3)cc21", "note": "[Example 231, 1-(6-(3-(4-(3-((4-((5-chloropyrimidin-2-yl)amino)piperidin-1-yl)sulfonyl)phenyl)piperazin-1-yl)prop-1-yn-1-yl)-1-methyl-1H-indazol-3-yl)dihydropyrimidine-2,4(1H,3H)-dione]", "IC50": "500 to 2500"}, {"smiles": "O=C1CCN(c2cncc3c(C4CCN(CC5CCN(c6cccc(S(=O)(=O)N7CCC(Nc8ncc(Cl)cn8)CC7)c6)CC5)CC4)cccc23)C(=O)N1", "note": "[Example 194, 1-(8-(1-((1-(3-((4-((5-chloropyrimidin-2-yl)amino)piperidin-1-yl)sulfonyl)phenyl)piperidin-4-yl)methyl)piperidin-4-yl)isoquinolin-4-yl)dihydropyrimidine-2,4(1H,3H)-dione]", "IC50": "100 to 500"}, {"smiles": "Cn1nc(N2CCC(=O)NC2=O)c2ccc(C3CCN(C[C@H]4CCCCN4c4cccc(S(=O)(=O)N5CCC(Nc6ncc(OC(F)F)cn6)CC5)c4)CC3)cc21", "note": "[Example 260, (R)-1-(6-(1-((1-(3-((4-((5-(difluoromethoxy)pyrimidin-2-yl)amino)piperidin-1-yl)sulfonyl)phenyl)piperidin-2-yl)methyl)piperidin-4-yl)-1-methyl-1H-indazol-3-yl)dihydropyrimidine-2,4(1H,3H)-dione]", "IC50": "100 to 500"}, {"smiles": "C[C@@H]1CN(CC2CCN(c3cccc(S(=O)(=O)N4CCC(Nc5ncc(Cl)cn5)CC4)c3)CC2)C[C@H](C)N1c1ccc2c(N3CCC(=O)NC3=O)nn(C)c2c1", "note": "[Example 127, 1-(6-((2S,6R)-4-((1-(3-((4-((5-chloro-pyrimidin-2-yl)amino)piperidin-1-yl)-sulfonyl)phenyl)piperidin-4-yl)methyl)-2,6-dimethylpiperazin-1-yl)-1-methyl-1H-indazol-3-yl)dihydropyrimidine-2,4(1H,3H)-dione]", "IC50": "1 to 100"}, {"smiles": "Cn1nc(N2CCC(=O)NC2=O)c2ccc(C3CCN(Cc4ccc(C5CCN(S(=O)(=O)N6CCC(Nc7ncc(Cl)cn7)CC6)CC5)cc4)CC3)cc21", "note": "[Example 139, 1-(6-(1-(4-(1-((4-((5-chloropyrimidin-2-yl)amino)piperidin-1-yl)sulfonyl)piperidin-4-yl)benzyl)piperidin-4-yl)-1-methyl-1H-indazol-3-yl)dihydropyrimidine-2,4(1H,3H)-dione]", "IC50": "> 2500"}, {"smiles": "Cn1nc(N2CCC(=O)NC2=O)c2ccc(C3CCN(Cc4cccc(S(=O)(=O)[C@H]5CC[C@H](Nc6ncc(Cl)cn6)CC5)c4)CC3)cc21", "note": "[Example 59, 1-(6-(1-(3-(((1r,4r)-4-((5-chloropyrimidin-2-yl)amino)cyclohexyl)sulfonyl)benzyl)piperidin-4-yl)-1-methyl-1H-indazol-3-yl)dihydropyrimidine-2,4(1H,3H)-dione]", "IC50": "> 2500"}, {"smiles": "Cn1nc(N2CCC(=O)NC2=O)c2ccc(C3CN(Cc4cccc(S(=O)(=O)N5CCC(Nc6ncc(OC(F)F)cn6)CC5)c4)C3)cc21", "note": "[Example 81, 1-(6-(1-(3-((4-((5-(difluoromethoxy)-pyrimidin-2-yl)amino)piperidin-1-yl)sulfonyl)benzyl)azetidin-3-yl)-1-methyl-1H-indazol-3-yl)dihydropyrimidine-2,4(1H,3H)-dione]", "IC50": "500 to 2500"}, {"smiles": "O=C1CCN(c2nn(CC(F)(F)F)c3cc(C4CCN(Cc5cccc(S(=O)(=O)N6CCC(Nc7ncc(C(F)(F)F)cn7)CC6)c5)CC4)ccc23)C(=O)N1", "note": "[Example 5, 1-(1-(2,2,2-trifluoroethyl)-6-(1-(3-((4-((5-(trifluoromethyl)pyrimidin-2-yl)amino)-piperidin-1-yl)sulfonyl)benzyl)-piperidin-4-yl)-1H-indazol-3-yl)dihydropyrimidine-2,4(1H,3H)-dione]", "IC50": "100 to 500"}, {"smiles": "Cn1nc(N2CCC(=O)NC2=O)c2ccc(C3CCN(Cc4cccc(S(=O)(=O)N5CCC(Nc6ncc(F)cn6)CC5)c4)CC3)cc21", "note": "[Example 26, 1-(6-(1-(3-((4-((5-fluoropyrimidin-2-yl)amino)piperidin-1-yl)sulfonyl)benzyl)-piperidin-4-yl)-1-methyl-1H-indazol-3-yl)dihydropyrimidine-2,4(1H,3H)-dione]", "IC50": "> 2500"}, {"smiles": "CN(Cc1cccc(S(=O)(=O)N2CCC(Nc3ncc(C(F)(F)F)cn3)CC2)c1)CC1CCN(c2ccc3c(N4CCC(=O)NC4=O)nn(C)c3c2)CC1", "note": "[Example 88, 1-(1-methyl-6-(4-((methyl(3-((4-((5-(trifluoromethyl)pyrimidin-2-yl)amino)-piperidin-1-yl)sulfonyl)benzyl)amino)-methyl)piperidin-1-yl)-1H-indazol-3-yl)dihydropyrimidine-2,4(1H,3H)-dione]", "IC50": "500 to 2500"}, {"smiles": "Cn1nc(N2CCC(=O)NC2=O)c2ccc(C3CN(CC4CCN(c5cccc(S(=O)(=O)N6CCC(Nc7ncc(C(F)(F)F)cn7)CC6)c5)CC4)C3)cc21", "note": "[Example 118, 1-(1-methyl-6-(1-((1-(3-((4-((5-(trifluoro-methyl)pyrimidin-2-yl)amino)piperidin-1-yl)sulfonyl)phenyl)piperidin-4-yl)methyl)-azetidin-3-yl)-1H-indazol-3-yl)dihydropyrimidine-2,4(1H,3H)-dione]", "IC50": "1 to 100"}, {"smiles": "Cn1nc(N2CCC(=O)NC2=O)c2cc(F)c(N3CCN(CC4CCN(c5cccc(S(=O)(=O)N6CCC(Nc7ncc(Cl)cn7)CC6)c5)CC4)CC3)cc21", "note": "[Example 111, 1-(6-(4-((1-(3-((4-((5-chloropyrimidin-2-yl)amino)piperidin-1-yl)sulfonyl)phenyl)-piperidin-4-yl)methyl)piperazin-1-yl)-5-fluoro-1-methyl-1H-indazol-3-yl)dihydropyrimidine-2,4(1H,3H)-dione]", "IC50": "500 to 2500"}, {"smiles": "Cn1nc(N2CCC(=O)NC2=O)c2ccc(C3CCN(C[C@H]4CCCN4c4cc(S(=O)(=O)N5CCC(Nc6ncc(OC(F)F)cn6)CC5)ccc4C#N)CC3)cc21", "note": "[Example 255, (R)-4-((4-((5-(difluoromethoxy)pyrimidin-2-yl)amino)piperidin-1-yl)sulfonyl)-2-(2-((4-(3-(2,4-dioxotetrahydropyrimidin-1(2H)-yl)-1-methyl-1H-indazol-6-yl)piperidin-1-yl)methyl)pyrrolidin-1-yl)benzonitrile]", "IC50": "100 to 500"}]}]}
